Measured values published in PubChem BioAssay AID248 (DTP/NCI, 2004).
Several values for one entry are separate records, joined by “and”; a condition that tells them apart may be missing. Equal entries are not always repeated. Inconclusive results and toxic doses are left out. Cut-off read from the data, not from the text of the source: active = T/C of 150% or more; inactive = T/C below 125%. Square brackets hold non-standard residues; d marks the D form. Peptide text beside a SMILES is read from it. * marks the point of attachment. ξ: configuration not given here. Boc = CC(C)(C)OC(=O)*; ξP = O=C(O)C1CCCN1

Tested on: L1210 leukemia ip in BDF1 mice, survival T/C
Assay: NCI In Vivo Anticancer Drug Screen. Data for tumor model L1210 Leukemia (intraperitoneal) in B6D2F1 (BDF1) mice
Conditions: endpoint: mean survival time, higher = longer survival
Outline: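 Value reflects the ratio of survival in compound-treated mice to survival in vehicle-treated controls, with both groups carrying the same transplanted tumor.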

[1] = dose: 100.0 mg/kg/injection, schedule: Q01DX001 (ip), vehicle: saline
[2] = dose: 100.0 mg/kg/injection, schedule: Q04DX003 (ip), vehicle: saline
[3] = dose: 200.0 mg/kg/injection, schedule: Q01DX001 (ip), vehicle: saline
[4] = dose: 200.0 mg/kg/injection, schedule: Q04DX003 (ip), vehicle: saline
[5] = dose: 400.0 mg/kg/injection, schedule: Q01DX001 (ip), vehicle: saline
[6] = dose: 400.0 mg/kg/injection, schedule: Q04DX003 (ip), vehicle: saline
[7] = dose: 50.0 mg/kg/injection, schedule: Q01DX009 (ip), vehicle: saline with Tween-80
[8] = dose: 100.0 mg/kg/injection, schedule: Q01DX009 (ip), vehicle: saline with Tween-80
[9] = dose: 200.0 mg/kg/injection, schedule: Q01DX009 (ip), vehicle: saline with Tween-80
[10] = dose: 400.0 mg/kg/injection, schedule: Q01DX009 (ip), vehicle: saline with Tween-80
[11] = dose: 50.0 mg/kg/injection, schedule: Q01DX001 (ip), vehicle: saline
[12] = dose: 100.0 mg/kg/injection, schedule: Q01DX001 (ip), vehicle: carboxymethylcellulose (CMC)
[13] = dose: 200.0 mg/kg/injection, schedule: Q01DX001 (ip), vehicle: carboxymethylcellulose (CMC)
[14] = dose: 400.0 mg/kg/injection, schedule: Q01DX001 (ip), vehicle: carboxymethylcellulose (CMC)

Measured: T/C

COc1ccc2nc(-c3ccc(C)cc3)cc(C(=O)O)c2c1
inactive: [1] 92 % of control | [2] 96 % of control | [3] 106 % of control | [4] 94 % of control | [5] 88 % of control | [6] 97 % of control

Nc1ncnc2c1ncn2C1OC(CO)C(NC(=S)SCc2ccccc2)C1O (configuration not stated)
inactive: dose: 75.0 mg/kg/injection, schedule: Q01DX001 (ip), vehicle: saline 101 % of control | dose: 150.0 mg/kg/injection, schedule: Q01DX001 (ip), vehicle: saline 87 % of control | dose: 300.0 mg/kg/injection, schedule: Q01DX001 (ip), vehicle: saline 101 % of control

CCCCCCCCCCCCCCCCCCOC(=O)c1ccco1
inactive: dose: 100.0 mg/kg/injection, schedule: Q01DX001 (ip), vehicle: other 96 % of control | dose: 200.0 mg/kg/injection, schedule: Q01DX001 (ip), vehicle: other 105 % of control | dose: 400.0 mg/kg/injection, schedule: Q01DX001 (ip), vehicle: other 92 % of control

N#CCc1ccc(NN)cc1
inactive: dose: 75.0 mg/kg/injection, schedule: Q01DX009 (ip), vehicle: other 93 % of control | dose: 150.0 mg/kg/injection, schedule: Q01DX009 (ip), vehicle: other 95 % of control

CN(C)CC1CCCCC1OC(=O)c1ccccc1 (configuration not stated)
inactive: [7] 91 % of control | [8] 94 % of control

CN(C)NC(=O)C(c1ccccc1)c1ccccc1
inactive: dose: 25.0 mg/kg/injection, schedule: Q04DX003 (ip), vehicle: saline with Tween-80 100 % of control | dose: 50.0 mg/kg/injection, schedule: Q04DX003 (ip), vehicle: saline with Tween-80 97 % of control | dose: 100.0 mg/kg/injection, schedule: Q04DX003 (ip), vehicle: saline with Tween-80 92 % of control and 97 % of control

CCOCC(C(=O)OCC)C(=O)OCC
inactive: [8] 111 % of control | [9] 111 % of control | [10] 97 % of control

CCC1(CC)OC2=C(CC(C#N)(C#N)C(C#N)(C#N)C2)O1
inactive: dose: 5.0 mg/kg/injection, schedule: Q01DX009 (ip), vehicle: Klucel (hydroxypropylcellulose) (HPC) 104 % of control | dose: 10.0 mg/kg/injection, schedule: Q01DX001 (ip), vehicle: saline 102 % of control | dose: 10.0 mg/kg/injection, schedule: Q01DX009 (ip), vehicle: Klucel (hydroxypropylcellulose) (HPC) 105 % of control | dose: 20.0 mg/kg/injection, schedule: Q01DX001 (ip), vehicle: saline 89 % of control | dose: 20.0 mg/kg/injection, schedule: Q01DX009 (ip), vehicle: Klucel (hydroxypropylcellulose) (HPC) 102 % of control

COc1ccc(/C=N/NC(=S)Nc2ccccn2)cc1OC
inactive: dose: 25.0 mg/kg/injection, schedule: Q01DX009 (ip), vehicle: saline with Tween-80 104 % of control | [7] 93 % of control | [8] 122 % of control

COC(=O)CNC(=O)C1CCCN1C(=O)OC(C)(C)C (configuration not stated) (Boc-[ξP]-Gly-OMe)
inactive: [8] 100 % of control | [9] 100 % of control | [10] 90 % of control

O=C(/C=C(\S)c1ccccc1)c1ccccc1
inactive: [11] 101 % of control | [1] 104 % of control | [3] 98 % of control | [5] 101 % of control

Cc1ccc2c(c1)OC(=O)CC2C (configuration not stated)
inactive: [12] 100 % of control | [13] 96 % of control | [14] 96 % of control

COc1cccc2c1C(=O)c1c(O)c3c(c(O)c1C2=O)CC(O)(C(C)=O)CC3OC1CC(N)C(OC2CC(N)C(O)C(C)O2)C(C)O1 (configuration not stated)
inactive: dose: 0.65 mg/kg/injection, schedule: Q01DX009 (ip), vehicle: saline 111 % of control | dose: 1.25 mg/kg/injection, schedule: Q01DX009 (ip), vehicle: saline 117 % of control | dose: 10.0 mg/kg/injection, schedule: Q01DX009 (ip), vehicle: saline 89 % of control

NC(=O)C(N)Cc1ccc(OCc2ccccc2)c(OCc2ccccc2)c1 (configuration not stated)
inactive: dose: 100.0 mg/kg/injection, schedule: Q01DX001 (ip), vehicle: saline with Tween-80 92 % of control | [8] 101 % of control | dose: 200.0 mg/kg/injection, schedule: Q01DX001 (ip), vehicle: saline with Tween-80 94 % of control | [9] 95 % of control | dose: 400.0 mg/kg/injection, schedule: Q01DX001 (ip), vehicle: saline with Tween-80 86 % of control

S=C(c1ccc2ccccc2n1)N1CCOCC1
inactive: dose: 100.0 mg/kg/injection, schedule: Q04DX003 (ip), vehicle: Klucel (hydroxypropylcellulose) (HPC) 100 % of control | dose: 200.0 mg/kg/injection, schedule: Q04DX003 (ip), vehicle: Klucel (hydroxypropylcellulose) (HPC) 91 % of control | dose: 400.0 mg/kg/injection, schedule: Q04DX003 (ip), vehicle: Klucel (hydroxypropylcellulose) (HPC) 105 % of control

COc1ccc(C(C#N)N2CCCC2)cc1 (configuration not stated)
inactive: dose: 6.25 mg/kg/injection, schedule: Q01DX009 (ip), vehicle: other 95 % of control | dose: 6.25 mg/kg/injection, schedule: Q04DX003 (ip), vehicle: other 98 % of control | dose: 12.5 mg/kg/injection, schedule: Q01DX009 (ip), vehicle: other 95 % of control | dose: 12.5 mg/kg/injection, schedule: Q04DX003 (ip), vehicle: other 104 % of control | dose: 25.0 mg/kg/injection, schedule: Q04DX003 (ip), vehicle: other 96 % of control

CCC(C)C(CN)(CCN1CCCCC1)Cc1cccc2ccccc12 (configuration not stated)
inactive: dose: 12.5 mg/kg/injection, schedule: Q04DX003 (ip), vehicle: saline + alcohol 96 % of control | dose: 25.0 mg/kg/injection, schedule: Q04DX003 (ip), vehicle: saline + alcohol 93 % of control | dose: 50.0 mg/kg/injection, schedule: Q04DX003 (ip), vehicle: saline + alcohol 96 % of control

CC12CCCCC1CCC1C2CCC2(C)C(C(=O)O)CCC12 (configuration not stated)
inactive: dose: 100.0 mg/kg/injection, schedule: Q04DX002 (ip), vehicle: gum acacia 89 % of control | dose: 200.0 mg/kg/injection, schedule: Q04DX002 (ip), vehicle: gum acacia 99 % of control | dose: 400.0 mg/kg/injection, schedule: Q04DX002 (ip), vehicle: gum acacia 92 % of control

COc1ccc2c(c1)OC(OC)(c1ccccc1)C(O)(OC)C2=O (configuration not stated)
inactive: [11] 96 % of control | [1] 98 % of control | [3] 96 % of control | [5] 98 % of control

N#CC1=C(C#N)C(=O)C(Cl)=C(Cl)C1=O
inactive: dose: 6.25 mg/kg/injection, schedule: Q01DX009 (ip), vehicle: saline 98 % of control | dose: 12.5 mg/kg/injection, schedule: Q01DX009 (ip), vehicle: saline 102 % of control | dose: 12.5 mg/kg/injection, schedule: Q04DX003 (ip), vehicle: saline sonified 104 % of control | dose: 25.0 mg/kg/injection, schedule: Q04DX003 (ip), vehicle: saline sonified 93 % of control

C=C(C)/C=C/C1CCCCC1
inactive: [7] 95 % of control | [8] 106 % of control | [9] 95 % of control

CCOC(=O)c1ccc(NC(=O)Nc2c(C)n(C)n(-c3ccccc3)c2=O)cc1
inactive: [1] 87 % of control | [8] 89 % of control | [2] 89 % of control | [3] 90 % of control | [9] 86 % of control | [4] 89 % of control | [5] 92 % of control | [6] 90 % of control

CCCCCCCCCCCCCCCC(=O)N(CCC)CCC
inactive: [12] 98 % of control | dose: 100.0 mg/kg/injection, schedule: Q01DX009 (ip), vehicle: carboxymethylcellulose (CMC) 105 % of control and 90 % of control | dose: 100.0 mg/kg/injection, schedule: Q04DX002 (ip), vehicle: carboxymethylcellulose (CMC) 102 % of control | dose: 100.0 mg/kg/injection, schedule: Q04DX003 (ip), vehicle: carboxymethylcellulose (CMC) 102 % of control | [13] 99 % of control | dose: 200.0 mg/kg/injection, schedule: Q01DX009 (ip), vehicle: carboxymethylcellulose (CMC) 100 % of control and 101 % of control | dose: 200.0 mg/kg/injection, schedule: Q04DX002 (ip), vehicle: carboxymethylcellulose (CMC) 94 % of control | dose: 200.0 mg/kg/injection, schedule: Q04DX003 (ip), vehicle: carboxymethylcellulose (CMC) 104 % of control | [14] 99 % of control | dose: 400.0 mg/kg/injection, schedule: Q04DX002 (ip), vehicle: carboxymethylcellulose (CMC) 96 % of control | dose: 400.0 mg/kg/injection, schedule: Q04DX003 (ip), vehicle: carboxymethylcellulose (CMC) 104 % of control

c1ccc(C(NC2=NCCCCCC2)c2ccco2)cc1 (configuration not stated)
inactive: dose: 12.5 mg/kg/injection, schedule: Q01DX009 (ip), vehicle: Klucel (hydroxypropylcellulose) (HPC) 98 % of control | dose: 25.0 mg/kg/injection, schedule: Q01DX009 (ip), vehicle: Klucel (hydroxypropylcellulose) (HPC) 100 % of control

CCOP(=O)(OCC)OC(=C(F)F)P(=O)(OCC)OCC
inactive: [2] 98 % of control | [4] 101 % of control | [6] 96 % of control
